Measured values as given in patent US12409151B2, “Transdermal device comprising NSAID or analgesic prodrug molecules” (Remedy Diagnostics LLC, priority 2019, dated 2025).
Converted amounts (≈) assume the structure as drawn. “And” between values parts separate entries of the source, which are not always exact repeats. Equal entries are not always repeated. Where two headings read alike, the source gives them in different places. One block for each compound: values may come before it.

Assays:
[1] = physchem; conditions: for solubility: organic solvent or mixture, thermodynamic from solid, solubility in F1
Protocol: This example illustrates the solubilities of APAP, IBU, Pro-APAP, and Pro-IBU in vehicle formulations F1 and F2.
Formulation F1 consisted of 50% Polyethylene Glycol (MW grade: 400) in 50% Ethanol. 50.2 mg of IBU was dissolved in 10.0 mL of F1, to produce a solution with a concentration of 5.02 mg/mL.

[2] = Solutions in permeation enhanced vehicle formulation F3; format: physicochemical; conditions: F3: 33.3% DMSO and 66.6% ethanol; dissolved in neat ethanol, then DMSO added
Protocol: A permeation enhanced vehicle formulation F3 was developed consisting of 33.3% dimethylsulfoxide (DMSO) and 66.6% ethanol. A solution of Pro-APAP in F3 was prepared by first dissolving 30.5 mg of Pro-APAP into 2 mL neat ethanol, and then slowly adding 1 mL DMSO to reach a 3 mL 10.1 mg/mL solution with a final DMSO concentration of 33.3%.
A solution of Pro-IBU in F3 was prepared by first dissolving 67.0 mg of Pro-IBU into 1 mL neat ethanol, and then slowly adding 0.50 mL DMSO to reach 1.5 mL of a 44.6 mg/mL solution with a final DMSO concentration of 33.3%.

[3] = Stability of prodrugs in vehicle F3, monitored visually; format: physicochemical
Protocol: This example evaluated the stability of each of the prodrugs in vehicle F3.
A 50 mg/ml solution of Pro-APAP in F3 was prepared and monitored visually for three months to check for stability. […] was determined to be stable in this solution for the duration of the experiment.
A 70 mg/ml solution of Pro-IBU in F3 was prepared and monitored visually for three months to check for stability. […] was determined to be stable in this solution for the duration of the experiment.

[4] = cited from earlier work
[5] = Skin permeation across excised human skin (Franz cell), UV-Vis of receptor media; format: in vitro ADME
Protocol: Skin Permeation Studies: Upon completion of the solubility and stability studies, the ability of the compound to permeate the skin in the selected solvent/vehicle was tested and the rate of permeation was measured to determine whether the compound permeated to an extent relevant for clinical use in a transdermal patch. Specifically, 4-acetoxyacetanilide was assessed for skin permeation across human skin over a 24 h time period.
Methods: For the skin permeation studies, a sample chamber containing 5 mL of 50% Polyethylene glycol 400 in ethanol was used as the receptor media. An initial sample of receptor media was drawn at the onset of testing to test for interferents and subsequent samples of 1 mL each were taken at the following time-points: 0.5 h, 1 h, 2 h, 5 h, 8 h, and 24 h. These samples were analyzed via UV-Vis spectroscopy (Tecan m200 Infinity Multi-Well Plate Reader) for absorbance at 246 nm and were blanked relative to that of the empty vehicle.
Materials: 4-acetoxyacetanilide (Pro-APAP), Formulation Solvent: 50% DMSO in Polyethylene Glycol 400, and Receptor Media: 50% Ethanol in Polyethylene Glycol 400 at 37° C.
Skin permeation studies: Upon completion of the solubility and stability studies, the ability of the pro-IBU compound to permeate the skin in the selected solvent/vehicle was tested and the rate of permeation was measured to determine whether the compound will permeate to an extent relevant for clinical use in a transdermal patch. Specifically, ethyl 2-(4-isobutylphenyl)-propanoate was assessed for skin permeation across human skin over a 24 h time period.
Materials: ethyl 2-(4-isobutylphenyl)-propanoate (pro-IBU), Formulation Solvent: 50% DMSO in Polyethylene Glycol 400, Receptor Media: 50% Ethanol in Polyethylene Glycol 400 at 37° C.

[6] = 5 Hr, cumulative mass into receptor media, excised human skin, Franz cell 0.64 cm^2, 37° C.
[7] = 8 Hr, cumulative mass into receptor media, excised human skin, Franz cell 0.64 cm^2, 37° C.
[8] = 24 Hr, cumulative mass into receptor media, excised human skin, Franz cell 0.64 cm^2, 37° C.
[9] = 24 h, excised human skin, Franz cell, 37° C., 50% DMSO in PEG 400

solubility [1]: 12.8 mg/mL (≈ 84.7 mM)
SMILES: CC(=O)Nc1ccc(O)cc1 [APAP, acetaminophen, reference compound]

SMILES: CC(=O)Nc1ccc(OC(C)=O)cc1 [Pro-APAP, 4-acetoxyacetanilide]
concentration of solution prepared in F3 [2]: 10100 µg/mL | stability in solution in F3 ([3]; 50 mg/ml solution in F3, monitored visually for three months): stable | stability in solution in F3 ([3]; 70 mg/ml solution of Pro-IBU in F3, monitored visually for three months): stable | solubility ([4]; in chloroform, DMSO, and methanol): slightly soluble | solubility in F1 [1]: 12.5 mg/mL (≈ 64.7 mM) | Maximum (mass released) [5, 6]: 10.8 µg and 10.88 µg | Minimum (mass released) [5, 6]: 4.73 µg | Average Mass Released ([5]; 5 Hr, cumulative mass into receptor media, excised human skin, Franz cell 0.64 cm^2, 37° C., 50% DMSO in PEG 400): 7.15 µg and 7.16 µg | Maximum (mass released) [5, 7]: 15.34 µg | Minimum (mass released) [5, 7]: 10.04 µg | Average Mass Released ([5]; 8 Hr, cumulative mass into receptor media, excised human skin, Franz cell 0.64 cm^2, 37° C., 50% DMSO in PEG 400): 12.20 µg | Maximum (mass released) [5, 8]: 91.94 µg and 91.95 µg | Minimum (mass released) [5, 8]: 55.45 µg | Average Mass Released ([5]; 24 Hr, cumulative mass into receptor media, excised human skin, Franz cell 0.64 cm^2, 37° C., 50% DMSO in PEG 400): 76.15 µg and 76.16 µg | concentration of Pro-APAP in receptor media, maximum [5, 9]: 15.78 µg/mL | concentration of Pro-APAP in receptor media, minimum [5, 9]: 8.76 µg/mL | concentration of Pro-APAP in receptor media, average ([5]; 24 h, excised human skin, Franz cell, 37° C., formulation solvent 50% DMSO in PEG 400, receptor 50% ethanol in PEG 400, blank subtracted): 12.36 µg/mL | permeability (permeation) coefficient range ([5]; calculated, human skin, 24 h study, 50% DMSO in PEG 400): 3.61-5.98 μg/h/cm^2 | total cumulative amount permeated ([5]; human skin over 24 h, 50% DMSO in PEG 400): around 80 μg per 0.66 cm^2

concentration of solution prepared in F3 [2]: 44600 µg/mL | solubility [1]: ≥ 24.9 mg/mL | permeability (permeation) coefficient range [5]: 33.32-65.47 μg/h/cm^2 | lag time ([5]; human): 2 to 5 h | Average Mass Released ([5]; human, 5 h): 18.06 µg | Maximum (mass released) ([5]; human, 5 h): 54.17 µg | Minimum (mass released) ([5]; human, 5 h): 0.00 µg | mass detected in one of the wells ([5]; human, 5 h): 54 µg | Average Mass Released ([5]; human, 8 h): 25.50 µg | Maximum (mass released) ([5]; human, 8 h): 70.83 µg | Minimum (mass released) ([5]; human, 8 h): 0.00 µg | concentration of Pro-IBU in the receptor media ([5]; human, 24 h): ~200 µg/mL
SMILES: CCOC(=O)C(C)c1ccc(CC(C)C)cc1 (stereo not drawn) [Pro-IBU, ethyl 2-(4-isobutylphenyl)-propanoate]
solubility ([4]; in DMSO and ethanol): soluble
